In publication PMC6017193, “Structure-Based Discovery of a Series of 5H-Pyrrolo[2,3-b]pyrazine FGFR Kinase Inhibitors” (Molecules : A Journal of Synthetic Chemistry and Natural …, 2018):

Target: T1, FGFR1 (Homo sapiens, UniProt P11362)
T1 construct: purchased Millipore
Test: ELISA kinase assay, FGFR1 enzymatic activity
Assay type: biochemical
Details: for inhibition at 10 µM / inhibition at 5 µM / inhibition at 0.01 µM / inhibition at 0.1 µM / inhibition at 1 µM / FGFR1 Inhibition (%): mean of two separate experiments
Method: The effects of compounds on the activities of indicated (FGFR1 and c-Met) kinases were determined using enzyme-linked immunosorbent assays (ELISAs) with purified recombinant proteins. Briefly, 20 μg/mL poly (Glu, Tyr)4:1 (Sigma, St. Louis, MO, USA) was precoated in 96-well plates as a substrate. A 50-μL aliquot of 10 μmol/L ATP solution diluted in kinase reaction buffer (50 mmol/L HEPES (pH 7.4), 50 mmol/L MgCl2, 0.5 mmol/L MnCl2, 0.2 mmol/L Na3VO4, and 1 mmol/L DTT) was added to each well; 1 μL of various concentrations of compounds diluted in 1% DMSO (v/v) (Sigma) were then added to each reaction well. DMSO (1%, v/v) was used as the negative control. The kinase reaction was initiated by the addition of purified tyrosine kinase proteins FGFR1 (Millipore, Darmstadt, Germany) or c-Met (Millipore) diluted in 49 μL of kinase reaction buffer. After incubation for 60 min at 37 °C, the plate was washed three times with phosphate-buffered saline (PBS) containing 0.1% Tween 20 (T-PBS). Anti-phosphotyrosine (PY99) antibody (Sanra Cruz, Dallas, TX, USA) (100 μL; 1:500, diluted in 5 mg/mL bovine serum albumin (BSA) T-PBS) was then added. After a 30-min incubation at 37 °C, the plate was washed three times, and 100 μL of horseradish peroxidase-conjugated goat anti-mouse IgG (Calbiochem, Shanghai, China) (1:2000, diluted in 5 mg/mL BSA T-PBS) was added. The plate was then incubated at 37 °C for 30 min, and washed three times. A 100-μL aliquot of a solution containing 0.03% H2O2 and 2 mg/mL o-phenylenediamine in 0.1 mol/L citrate buffer (pH 5.5) was added. The reaction was terminated by the addition of 50 μL of 2 mol/L H2SO4 as the color changed, and the plate was analyzed using a multi-well spectrophotometer (SpectraMAX 190, Molecular Devices, Palo Alto, CA, USA) at 490 nm. The inhibition rate (%) was calculated using the following equation:IR = [1 − (A490/A490control)] × 100%.(1) where IR, A490, and A490control are the inhibition rate, the absorbance value of the tested compound at 490 nm, and the absorbance value of the negative control compound at 490 nm, respectively. The IC50 values were calculated from the inhibition curves in two separate experiments.

T1 sequence (P11362 22-822): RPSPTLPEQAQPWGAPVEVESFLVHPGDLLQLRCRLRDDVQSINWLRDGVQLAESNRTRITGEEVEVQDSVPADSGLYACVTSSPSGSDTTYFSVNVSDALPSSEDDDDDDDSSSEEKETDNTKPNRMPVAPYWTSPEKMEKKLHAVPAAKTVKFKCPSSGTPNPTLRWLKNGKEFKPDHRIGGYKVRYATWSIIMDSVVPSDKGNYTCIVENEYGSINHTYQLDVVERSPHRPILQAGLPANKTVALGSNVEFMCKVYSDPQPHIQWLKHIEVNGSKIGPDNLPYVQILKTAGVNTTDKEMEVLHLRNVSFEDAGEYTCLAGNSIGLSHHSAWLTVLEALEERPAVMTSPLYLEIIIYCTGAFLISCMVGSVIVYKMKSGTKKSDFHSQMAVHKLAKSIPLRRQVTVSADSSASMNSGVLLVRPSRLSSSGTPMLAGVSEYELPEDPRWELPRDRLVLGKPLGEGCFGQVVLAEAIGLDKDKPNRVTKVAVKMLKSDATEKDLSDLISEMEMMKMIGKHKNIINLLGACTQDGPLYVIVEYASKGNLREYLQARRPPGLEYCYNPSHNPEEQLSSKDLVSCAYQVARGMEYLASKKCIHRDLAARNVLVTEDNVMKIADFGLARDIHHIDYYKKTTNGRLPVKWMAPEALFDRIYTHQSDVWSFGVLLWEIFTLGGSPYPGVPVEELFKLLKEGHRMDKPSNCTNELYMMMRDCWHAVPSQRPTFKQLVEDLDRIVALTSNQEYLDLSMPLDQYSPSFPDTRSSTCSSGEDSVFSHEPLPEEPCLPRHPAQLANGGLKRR

inhibition at 0.01 µM (0.01 μM (10 nM)) [%] | inhibition at 0.1 µM (0.1 μM) [%] | inhibition at 1 µM (1 μM) [%] | Compound | also measured
 |  |  | Cn1cc(-c2cnc3cnn(S(=O)(=O)c4c(Cl)nc5sccn45)c3c2)cn1 [Compound 5, 6-chloro-5-((6-(1-methyl-1H-pyrazol-4-yl)-1H-pyrazolo[4,3-b]pyridin-1-yl)sulfonyl)imidazo[2,1-b]thiazole] | inhibition at 10 µM: > 50%
 |  |  | Cn1cc(-c2cnc3ccn(S(=O)(=O)c4c(Cl)nc5sccn45)c3n2)cn1 [Compound 9, 6-Chloro-5-((3-(1-methyl-1H-pyrazol-4-yl)-5H-pyrrolo[2,3-b]pyrazin-5-yl)sulfonyl)imidazo[2,1-b]thiazole] | inhibition at 5 µM: 83.7%; inhibition at 10 µM: 92.5%
 |  |  | Cn1cc(-c2cnc3ccn(S(=O)(=O)c4cnn5cccnc45)c3n2)cn1 [Compound 10, 3-(1-Methyl-1H-pyrazol-4-yl)-5-(pyrazolo[1,5-a]pyrimidin-3-ylsulfonyl)-5H-pyrrolo[2,3-b]pyrazine] | inhibition at 5 µM: 77%; inhibition at 10 µM: 91%
 |  |  | Cn1cnc(S(=O)(=O)n2ccc3ncc(-c4cnn(C)c4)nc32)c1 [Compound 11, 5-((1-Methyl-1H-imidazol-4-yl)sulfonyl)-3-(1-methyl-1H-pyrazol-4-yl)-5H-pyrrolo[2,3-b]pyrazine] | inhibition at 5 µM: 58.1%; inhibition at 10 µM: 86%
 |  |  | Cn1cc(-c2cnc3ccn(S(=O)(=O)c4cn(CCF)cn4)c3n2)cn1 [Compound 12, 5-((1-(2-Fluoroethyl)-1H-imidazol-4-yl)sulfonyl)-3-(1-methyl-1H-pyrazol-4-yl)-5H-pyrrolo[2,3-b]pyrazine] | inhibition at 5 µM: 68.9%; inhibition at 10 µM: 89%
4.7 | 2.2 | 2.8 | O=S(=O)(c1cn(CCF)cn1)n1ccc2ncc(-c3cnn(C4CC4)c3)nc21 [Compound 14, 3-(1-Cyclopropyl-1H-pyrazol-4-yl)-5-((1-(2-fluoroethyl)-1H-imidazol-4-yl)sulfonyl)-5H-pyrrolo[2,3-b]pyrazine] | FGFR1 activity (in words) (FGFR1 enzymatic activity, Table 3): lost the FGFR1 activity
35.9 | 25.9 | 70.9 | CC(=O)n1cc(-c2cnc3ccn(S(=O)(=O)c4cn(CCF)cn4)c3n2)cn1 [Compound 15, 1-(4-(5-((1-(2-fluoroethyl)-1H-imidazol-4-yl)sulfonyl)-5H-pyrrolo[2,3-b]pyrazin-3-yl)-1H-pyrazol-1-yl)ethan-1-one] | 
15.1 | 55.8 | 94.6 | CCC(=O)n1cc(-c2cnc3ccn(S(=O)(=O)c4cn(CCF)cn4)c3n2)cn1 [Compound 16, 1-(4-(5-((1-(2-Fluoroethyl)-1H-imidazol-4-yl)sulfonyl)-5H-pyrrolo[2,3-b]pyrazin-3-yl)-1H-pyrazol-1-yl)propan-1-one] | 
24.6 | 13.3 | 22.6 | CC(=O)Cn1cc(-c2cnc3ccn(S(=O)(=O)c4cn(CCF)cn4)c3n2)cn1 [Compound 18, 1-(4-(5-((1-(2-Fluoroethyl)-1H-imidazol-4-yl)sulfonyl)-5H-pyrrolo[2,3-b]pyrazin-3-yl)-1H-pyrazol-1-yl)propan-2-one] | 
7.3 | 12 | 40.7 | COC(=O)Cn1cc(-c2cnc3ccn(S(=O)(=O)c4cn(CCF)cn4)c3n2)cn1 [Compound 19, Methyl 2-(4-(5-((1-(2-fluoroethyl)-1H-imidazol-4-yl)sulfonyl)-5H-pyrrolo[2,3-b]pyrazin-3-yl)-1H-pyrazol-1-yl)acetate] | 
7.2 | 5.4 | 49.6 | CCOC(=O)Cn1cc(-c2cnc3ccn(S(=O)(=O)c4cn(CCF)cn4)c3n2)cn1 [Compound 20, Ethyl 2-(4-(5-((1-(2-fluoroethyl)-1H-imidazol-4-yl)sulfonyl)-5H-pyrrolo[2,3-b]pyrazin-3-yl)-1H-pyrazol-1-yl)acetate] | 
12.5 | 14.9 | 65.6 | CNC(=O)Cn1cc(-c2cnc3ccn(S(=O)(=O)c4cn(CCF)cn4)c3n2)cn1 [Compound 21, 2-(4-(5-((1-(2-Fluoroethyl)-1H-imidazol-4-yl)sulfonyl)-5H-pyrrolo[2,3-b]pyrazin-3-yl)-1H-pyrazol-1-yl)-N-methylacetamide] | 
0.4 | 2.5 | 15.3 | CN(C)C(=O)Cn1cc(-c2cnc3ccn(S(=O)(=O)c4cn(CCF)cn4)c3n2)cn1 [Compound 22, 2-(4-(5-((1-(2-Fluoroethyl)-1H-imidazol-4-yl)sulfonyl)-5H-pyrrolo[2,3-b]pyrazin-3-yl)-1H-pyrazol-1-yl)-N,N-dimethylacetamide] | 
20.9 | 37.1 | 82.3 | CS(=O)(=O)n1cc(-c2cnc3ccn(S(=O)(=O)c4cn(CCF)cn4)c3n2)cn1 [Compound 23, 5-((1-(2-Fluoroethyl)-1H-imidazol-4-yl)sulfonyl)-3-(1-(methylsulfonyl)-1H-pyrazol-4-yl)-5H-pyrrolo[2,3-b]pyrazine] | 
16.6 | 13.5 | 29.5 | O=S(=O)(c1cn(CCF)cn1)n1ccc2ncc(-c3cnn(S(=O)(=O)C4CC4)c3)nc21 [Compound 24, 3-(1-(Cyclopropylsulfonyl)-1H-pyrazol-4-yl)-5-((1-(2-fluoroethyl)-1H-imidazol-4-yl)sulfonyl)-5H-pyrrolo[2,3-b]pyrazine] | 
23.5 | 46.5 | 83 | COC(=O)C(C(=O)OC)n1cc(-c2cnc3ccn(S(=O)(=O)c4cn(CCF)cn4)c3n2)cn1 [Compound 25, Dimethyl 2-(4-(5-((1-(2-fluoroethyl)-1H-imidazol-4-yl)sulfonyl)-5H-pyrrolo[2,3-b]pyrazin-3-yl)-1H-pyrazol-1-yl)malonate] | 
26.8 | 33.6 | 69 | CCOC(=O)C(C(=O)OCC)n1cc(-c2cnc3ccn(S(=O)(=O)c4cn(CCF)cn4)c3n2)cn1 [Compound 26, Diethyl 2-(4-(5-((1-(2-fluoroethyl)-1H-imidazol-4-yl)sulfonyl)-5H-pyrrolo[2,3-b]pyrazin-3-yl)-1H-pyrazol-1-yl)malonate] | 
40.4 | 77.1 | 94.5 | CC(C)n1cnc(S(=O)(=O)n2ccc3ncc(-c4cn[nH]c4)nc32)c1 [Compound 30] | 
13.9 | 19.9 | 37.1 | CC(C)Cn1cnc(S(=O)(=O)n2ccc3ncc(-c4cn[nH]c4)nc32)c1 [Compound 31, 5-((1-Isobutyl-1H-imidazol-4-yl)sulfonyl)-3-(1H-pyrazol-4-yl)-5H-pyrrolo[2,3-b]pyrazine] | 
4.9 | 20.1 | 71.7 | O=S(=O)(c1cn(C2CCCC2)cn1)n1ccc2ncc(-c3cn[nH]c3)nc21 [Compound 32, 5-((1-Cyclopentyl-1H-imidazol-4-yl)sulfonyl)-3-(1H-pyrazol-4-yl)-5H-pyrrolo[2,3-b]pyrazine] | 
19.9 | 43.8 | 82.4 | CNC(=O)Cn1cnc(S(=O)(=O)n2ccc3ncc(-c4cn[nH]c4)nc32)c1 [Compound 33, 2-(4-((3-(1H-Pyrazol-4-yl)-5H-pyrrolo[2,3-b]pyrazin-5-yl)sulfonyl)-1H-imidazol-1-yl)-N-methylacetamide] | 
 | 26.4 | 73.9 | O=S(=O)(c1cnn2cccnc12)n1ccc2ncc(-c3cn[nH]c3)nc21 [Compound 34, 3-(1H-Pyrazol-4-yl)-5-(pyrazolo[1,5-a]pyrimidin-3-ylsulfonyl)-5H-pyrrolo[2,3-b]pyrazine] | 
31.8 | 68.7 | 90.6 | O=S(=O)(c1cnc2cccnn12)n1ccc2ncc(-c3cn[nH]c3)nc21 [Compound 35, 5-(Imidazo[1,2-b]pyridazin-3-ylsulfonyl)-3-(1H-pyrazol-4-yl)-5H-pyrrolo[2,3-b]pyrazine] | 
 |  |  | Methyl 2-(4-(5-((1-(2-fluoroethyl)-1H-imidazol-4-yl)sulfonyl)-5H-pyrrolo[2,3-b]pyrazin-3-yl)-1H-pyrazol-1-yl)acetate [Compound 17] | FGFR1 Inhibition (%) (0.01 μM (10 nM)): −3.3%; FGFR1 Inhibition (%) (0.1 μM): 15.6%; FGFR1 Inhibition (%) (1 μM): 56.8%
